Results reported in US20240158412A1 (Faxian Therapeutics, LLC, priority 2021, published 2024).

Biological target: USP7 (Homo sapiens, UniProt Q93009)
Experiment: biochemical
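Also: fluorescence intensity readout of USP7 enzymatic activity, reaction incubated 90 min at room temperature.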

Sequence of USP7 (Q93009 whole entry): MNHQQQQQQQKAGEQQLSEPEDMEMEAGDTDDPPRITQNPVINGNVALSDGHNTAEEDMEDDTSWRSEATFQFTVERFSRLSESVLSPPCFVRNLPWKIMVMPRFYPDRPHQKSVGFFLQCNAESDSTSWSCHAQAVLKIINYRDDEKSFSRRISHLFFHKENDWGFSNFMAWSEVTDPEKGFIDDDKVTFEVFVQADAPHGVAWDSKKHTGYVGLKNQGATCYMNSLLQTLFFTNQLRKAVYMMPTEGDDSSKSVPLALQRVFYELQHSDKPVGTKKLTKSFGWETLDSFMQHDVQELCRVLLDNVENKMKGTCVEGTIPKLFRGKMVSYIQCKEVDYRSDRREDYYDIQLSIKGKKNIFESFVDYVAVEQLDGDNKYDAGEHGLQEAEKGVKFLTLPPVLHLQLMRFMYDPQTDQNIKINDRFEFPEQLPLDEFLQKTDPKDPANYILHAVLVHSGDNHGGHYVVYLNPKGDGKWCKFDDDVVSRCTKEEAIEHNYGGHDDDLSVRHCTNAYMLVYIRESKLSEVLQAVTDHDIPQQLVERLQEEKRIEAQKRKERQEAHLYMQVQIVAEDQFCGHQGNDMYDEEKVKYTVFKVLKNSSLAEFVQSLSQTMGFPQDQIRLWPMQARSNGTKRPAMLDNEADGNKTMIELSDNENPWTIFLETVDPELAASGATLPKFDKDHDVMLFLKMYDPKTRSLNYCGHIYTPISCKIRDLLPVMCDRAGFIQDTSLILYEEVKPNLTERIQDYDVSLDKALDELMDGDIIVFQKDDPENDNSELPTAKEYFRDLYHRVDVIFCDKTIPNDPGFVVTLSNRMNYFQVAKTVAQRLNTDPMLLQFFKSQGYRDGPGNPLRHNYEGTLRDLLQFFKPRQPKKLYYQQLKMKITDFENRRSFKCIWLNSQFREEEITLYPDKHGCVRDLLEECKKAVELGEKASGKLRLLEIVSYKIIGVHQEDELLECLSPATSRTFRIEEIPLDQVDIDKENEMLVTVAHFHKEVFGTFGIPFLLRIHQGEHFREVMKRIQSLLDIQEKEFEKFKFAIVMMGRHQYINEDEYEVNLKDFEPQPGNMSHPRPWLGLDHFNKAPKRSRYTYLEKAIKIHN

Compound	IC50
Cc1cnn(Cc2cc3nccc(-c4cc(Cl)cc5c4N([C@@H]4CN[C@@H](CO)C4)CCO5)c3s2)c(=O)c1 [Example 216, 2-((7-(7-chloro-4-((3S,5R)-5-(hydroxymethyl)pyrrolidin-3-yl)-3,4-dihydro-2H-benzo[b][1,4]oxazin-5-yl)thieno[3,2-b]pyridin-2-yl)methyl)-5-methylpyridazin-3(2H)-one]	< 0.01 µM
C[C@@H]1CCc2cc(Cl)cc(-c3ccnc4cc(CN5C(=O)CCC5=O)sc34)c2N1[C@@H]1CCNC1 (single isomer, unassigned) [Example 44c]	0.01 to 0.1 µM
C[C@@H]1C[C@H](N2CCCc3cc(Cl)cc(-c4ccnc5cc(Cn6c(=O)ccn(CC(F)(F)F)c6=O)sc45)c32)CN1 (single isomer, unassigned) [Example 95b]	0.01 to 0.1 µM
O=C1CCC(=O)N1Cc1sc2c(-c3cc(Cl)cc4c3N(C3CCNC3)CCC4)ccnc2c1F (single isomer, unassigned) [Example 108b]	0.01 to 0.1 µM
CC1(C)C2C(=O)N(Cc3cc4nccc(-c5cc(C#N)cc6c5N([C@@H]5CN[C@@](C)(CO)C5)CCO6)c4s3)C(=O)C21 (stereo partly drawn) [Example 220, 5-(2-((6,6-dimethyl-2,4-dioxo-3-azabicyclo[3.1.0]hexan-3-yl)methyl)thieno[3,2-b]pyridin-7-yl)-4-((3S,5R)-5-(hydroxymethyl)-5-methylpyrrolidin-3-yl)-3,4-dihydro-2H-benzo[b][1,4]oxazine-7-carbonitrile]	< 0.01 µM
O=c1ccn(CC(F)(F)F)c(=O)n1Cc1cc2ncnc(-c3cc(Cl)cc4c3N([C@@H]3CCNC3)CCC4)c2s1 (single isomer, unassigned) [Example 90]	< 0.01 µM
O=C1C2CC2C(=O)N1Cc1cc2nccc(-c3cc(Cl)cc4c3N([C@H]3CNC(CO)(CO)C3)CCO4)c2s1 (single isomer, unassigned) [Example 212a]	< 0.01 µM
C[C@]1(CO)C[C@H](N2CCCc3cc(Cl)cc(-c4ccnc5cc(Cn6ncc(C7(C(F)(F)F)CC7)cc6=O)sc45)c32)CN1 [Example 207, 2-((7-(6-chloro-1-((3S,5R)-5-(hydroxymethyl)-5-methylpyrrolidin-3-yl)-1,2,3,4-tetrahydroquinolin-8-yl)thieno[3,2-b]pyridin-2-yl)methyl)-5-(1-(trifluoromethyl)cyclopropyl)pyridazin-3(2H)-one]	< 0.01 µM
CC(F)(F)Cn1ccc(=O)n(Cc2cc3nccc(-c4cc(Cl)cc5c4N([C@H]4CCNC4)CCC5)c3s2)c1=O [Example 103, (S)-3-((7-(6-chloro-1-(pyrrolidin-3-yl)-1,2,3,4-tetrahydroquinolin-8-yl)thieno[3,2-b]pyridin-2-yl)methyl)-1-(2,2-difluoropropyl)pyrimidine-2,4(1H,3H)-dione]	< 0.01 µM

Continued, values first:

IC50	Compound
< 0.01 µM	O=C1CCC(=O)N1Cc1cc2nccc(-c3cc(Cl)cc4c3C(N3CCNCC3)CCO4)c2s1 (single isomer, unassigned) [Example 52b]
> 1 µM	O=C1CCC(=O)N1Cc1cc2nccc(-c3cc(Cl)cc4c3N([C@H]3CO[C@@H](CO)C3)CCO4)c2s1 (single isomer, unassigned) [Example 227a]
< 0.01 µM	CCn1c(N(C)C)cc(=O)n(Cc2cc3nccc(-c4cc(C#N)cc5c4N([C@@H]4CNC(C)(C)C4)CCC5)c3s2)c1=O [Example 126, (S)-8-(2-((4-(dimethylamino)-3-ethyl-2,6-dioxo-2,3-dihydropyrimidin-1(6H)-yl)methyl)thieno[3,2-b]pyridin-7-yl)-1-(5,5-dimethylpyrrolidin-3-yl)-1,2,3,4-tetrahydroquinoline-6-carbonitrile]
> 1 µM	O=C1CCC(=O)N1Cc1cc2nccc(-c3cc(Cl)cc4c3N(C3CO[C@@H](CO)C3)CCO4)c2s1 (single isomer, unassigned) [Example 227c]
< 0.01 µM	Cc1cnn(Cc2cc3nccc(-c4cc(C#N)cc5c4N([C@@H]4CNC(C)(C)C4)CCO5)c3s2)c(=O)c1 [Example 134, (S)-4-(5,5-dimethylpyrrolidin-3-yl)-5-(2-((4-methyl-6-oxopyridazin-1(6H)-yl)methyl)thieno[3,2-b]pyridin-7-yl)-3,4-dihydro-2H-benzo[b][1,4]oxazine-7-carbonitrile]
0.01 to 0.1 µM	CC(C)(C)c1cnn(Cc2cc3nccc(-c4cc(C#N)cc5c4N([C@H]4CN[C@@H](CO)C4)C[C@H]4C[C@@H]54)c3s2)c(=O)c1 (single isomer, unassigned) [Example 193b]
< 0.01 µM	CC1(c2cnn(Cc3cc4nccc(-c5cc(Cl)cc6c5N([C@@H]5CN[C@@H](CO)C5)CCC6)c4s3)c(=O)c2)CC1 [Example 188, 2-((7-(6-chloro-1-((3S,5R)-5-(hydroxymethyl)pyrrolidin-3-yl)-1,2,3,4-tetrahydroquinolin-8-yl)thieno[3,2-b]pyridin-2-yl)methyl)-5-(1-methylcyclopropyl)pyridazin-3(2H)-one]
< 0.01 µM	O=C1COc2cc(Cl)cc(-c3ccnc4cc(Cn5ncc(C6CC6)cc5=O)sc34)c2N1[C@@H]1CNC2(CCC2)C1 [Example 174, (S)-7-chloro-5-(2-((4-cyclopropyl-6-oxopyridazin-1(6H)-yl)methyl)thieno[3,2-b]pyridin-7-yl)-4-(5-azaspiro[3.4]octan-7-yl)-2H-benzo[b][1,4]oxazin-3(4H)-one]
